Target: T1, Sortase A (Staphylococcus aureus, UniProt Q9S446)
T1 sequence (Q9S446 whole entry): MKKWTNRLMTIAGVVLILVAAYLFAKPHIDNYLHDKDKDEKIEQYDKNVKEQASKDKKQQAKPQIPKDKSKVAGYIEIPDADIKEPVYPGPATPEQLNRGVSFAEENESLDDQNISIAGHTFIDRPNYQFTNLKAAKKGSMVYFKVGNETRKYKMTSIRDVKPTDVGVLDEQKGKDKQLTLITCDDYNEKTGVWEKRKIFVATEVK
Assay: Inhibitory activity towards SrtA (sortase A)

Work on COc1ccc(/C=C(/C#N)c2ccc(OC)cc2)cc1 yielded an IC50 of 187 µM.

With COc1ccc(/C=C/c2ccc(OC)cc2)cc1 the IC50 was greater than 1000 µM.

With COc1ccc(/C(C#N)=C/c2cc(OC)ccc2OC)cc1 the IC50 was 9.24 µM.

For COc1ccc(/C=C(/C(N)=O)c2ccc(OC)cc2)cc1, the IC50 was 476 µM.

For COc1ccc(/C(C#N)=C/c2cccc(OC)c2)cc1, the IC50 was 17.4 µM.

In the case of COc1ccc(CCc2ccc(OC)cc2)cc1, the IC50 is reported as greater than 1000 µM.

COc1ccc(/C=C(/C(=O)O)c2ccc(OC)cc2)cc1 showed an IC50 greater than 1000 µM.

For COC(=O)/C(=C/c1ccc(OC)cc1)c1ccc(OC)cc1, the IC50 was 231 µM.

Work on COc1ccc(/C=C(\C#N)c2ccc(OC)cc2)cc1 yielded an IC50 of 27.9 µM.

Compound COC(=O)/C(=C\c1ccc(OC)cc1)c1ccc(OC)cc1 has an IC50 of 909 µM.

Work on COc1ccc(CC(C#N)c2ccc(OC)cc2)cc1 (stereo unspecified) yielded an IC50 greater than 1000 µM.

COc1ccc(/C(C#N)=C/c2ccccc2OC)cc1 showed an IC50 of 36.2 µM.

COc1ccc(/C(C#N)=C/c2cc(OC)cc(OC)c2)cc1 gave an IC50 of 25.5 µM.

COc1ccc(/C(C#N)=C/c2ccc(OC)c(OC)c2)cc1 was tested, and the IC50 was 23 µM.

Compound COc1ccc(/C=C\c2ccc(OC)cc2)cc1 has an IC50 greater than 1000 µM.

With COC(=O)C(Cc1ccc(OC)cc1)c1ccc(OC)cc1 (stereo unspecified) the IC50 was greater than 1000 µM.
